36 compounds from ChEMBL document CHEMBL1201862, “PubChem BioAssay data set” (2004) can be followed below.

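Assay format: 96-well plates, 48-hour exposure. The concentration for 50% growth inhibition is given as GI50.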 Calls of active or inactive are those of the source. Rule as the data show it: active = GI50 up to about 1.1 µM and inactive = higher. Peptide text beside a SMILES is read from it. * marks the point of attachment. Boc = CC(C)(C)OC(=O)*; OtBu = CC(C)(C)O* A value given as a limit tells only on which side of the number the result lay.

In the assay the test system is BT-549. Nature of the assay: NCI tumour cell line growth inhibition, 48 h.
On to `COC1OC(COC(=O)NCCCCC(=O)C(F)(F)F)C(O)C(O)C1O` (stereo unspecified), for which the GI50 was > 100 µM (inactive).
Take `CC(=O)OC1CCC2(C)C(CCC3C2CC(=O)C2(C)C3CC(N3CC3)C2C(C)=O)C1` (stereo unspecified): the GI50 is 17.4 µM (inactive).
With `c1ccc(C2(c3cc4ccccc4[nH]3)OCCO2)nc1`, the GI50 was > 100 µM (inactive).
Turning to `COC(=O)[C@]1(c2cc3ccccc3[nH]2)CC2CN(C(=O)OCc3ccccc3)C1CC2=O` (stereo partly specified), the GI50 was 29.3 µM (inactive).
Regarding `CC(=O)OCc1cncn1S(=O)(=O)c1ccc(C)cc1`, the GI50 is > 83.4 µM (inactive).
In the case of `Cc1cnc2nc(-c3cccc4ccccc34)cc(O)c2c1`, the GI50 is 0.0536 µM (active).
Take `CCNc1nnc(-c2ccccc2Nc2ccccc2-c2nnc(NCC)s2)s1`: the GI50 is 19.6 µM (inactive).
On to `O=C(NN1C(=O)c2ccccc2C1=O)c1ccccc1Nc1ccccc1C(=O)NN1C(=O)c2ccccc2C1=O`, for which the GI50 was > 100 µM (inactive).
As for `Nc1cccc(/C=C/C(=O)N2CCN(CCOC(c3ccccc3)c3ccccc3)CC2)c1`, the GI50 is 15 µM (inactive).
For `C(=C\c1cccs1)/c1cccc(/C=C/c2cccs2)n1`, the GI50 is 22 µM (inactive).
As for `[O-][n+]1onc(-c2ccccc2)c1CN1CCOCC1`, the GI50 was > 100 µM (inactive).
The result for `CCOC(=O)/C(C(=O)Nc1cccc(Cl)c1)=C(/N)N1CCOCC1` reads > 100 µM (inactive); that for `Cc1cccnc1N/C=C1\C(=O)NC(=O)N(C)C1=O`, > 100 µM (inactive).
The result for `COc1cc(C=O)cc(/C=N/n2c3ccccc3c3ccccc32)c1O` reads 2.94 µM (inactive); that for `C=CC(OC(C)=O)c1ccc(OC(=O)C(C)C)c(OC)c1` (stereo unspecified), 6.79 µM (inactive).
For `CC(=O)Oc1ccc2cc(Oc3ccc(Cl)cc3)c(=O)oc2c1`, the GI50 is 25.9 µM (inactive).
As to `Cc1ccc(C2SC(=N)Nc3c2c(C)nn3C(=O)c2ccccc2O)cc1` (stereo unspecified), the GI50 is > 10 µM (inactive).
Consider `CCN(CC)c1ccc2cc(-c3csc(C)n3)c(=O)oc2c1`, for which the GI50 is 28.2 µM (inactive).
With `CC(C)(C)OC(=O)CC(NC(=O)OC(C)(C)C)C(=O)NC(Cc1ccccc1)C(N)=O` (stereo unspecified) (Boc-Asp(OtBu)-Phe-NH2; configuration not given here), the GI50 is > 100 µM (inactive).
The value for `Nc1nc(Cl)c(N)c(NCC2(CO)CC2)n1` was > 100 µM (inactive).
Turning to `C=C(C)C1=CCC[C@]2(C1)N=C(OC)[C@@H](C(C)C)N=C2OC`, the GI50 is > 100 µM (inactive).
For the compound `CC(C)N(C(=O)c1ccc(NCc2cc(O)ccc2O)cc1)C(C)C`, the GI50 is 11.9 µM (inactive).
The value for `[N-]=[N+]=NC1OC(=O)C(Cl)=C1N=P(c1ccccc1)(c1ccccc1)c1ccccc1` (stereo unspecified) was > 10 µM (inactive); that for `C=C(C)CNC(=S)N(N)c1ccc2ccccc2c1` was > 100 µM (inactive).
On to `CC(=O)Nc1ccc2c(c1)C(=O)c1cccc(F)c1-2`, for which the GI50 was 4.45 µM (inactive).
As to `O=S(=O)(O)c1cccc2cccc(/N=N/c3c(O)ccc4ccccc34)c12`, the GI50 was > 100 µM (inactive).
With `O=C1C=C(NCC(c2ccccc2)c2ccccc2)C(=O)c2ncccc21`, the GI50 was 1.06 µM (active).
As for `CC(C)Sc1nncc(/C(N)=N/O)n1`, the GI50 is > 100 µM (inactive).
The result for `COc1cc2cc(C(=O)N3CC(COS(C)(=O)=O)c4c3cc([N+](=O)[O-])c3ccccc43)[nH]c2c(OC)c1OC` (stereo unspecified) reads > 31.6 µM (inactive); that for `COc1cc(/C=C2\N=C(c3ccccc3)N(c3nc4cc(C)c(C)cc4s3)C2=O)ccc1O`, 46.3 µM (inactive); that for `Cc1nn(C(=O)c2ccccc2O)c2c1C(c1ccc3ccccc3c1O)SC(=N)N2` (stereo unspecified), > 10 µM (inactive).
With `CCOc1ccc(N/C(Cl)=C(Cl)\C(=C(\Nc2ccc(OCC)cc2)n2nnc3ccccc32)[N+](=O)[O-])cc1`, the GI50 was 3.85 µM (inactive).
`CC(=O)N1c2ccccc2C2=NN(C)C(=N)SC21` (stereo unspecified): the GI50 was > 100 µM (inactive).
Take `C=C1CC23CCC4C(C)(C(=O)O)CCCC4(C)C2CCC1C3` (stereo unspecified): the GI50 was 26.3 µM (inactive).
With `CN(C)CCNc1nc2ccccc2c2c1CCCC2`, the GI50 was 33.1 µM (inactive).
As for `Cn1c(=O)c2c(nc(NCCNc3nc4c(c(=O)n(C)c(=O)n4C)n3C)n2C)n(C)c1=O`, the GI50 was > 100 µM (inactive).
